Assay results published in publication PMC12441834, “Highly Potent and Subtype-Selective Sperm-Specific Potassium Channel SLO3 Inhibitors Display High Tissue Exposure in the Murine Female Reproductive Tract” (ACS Pharmacology & Translational Science, 2025).
Like-named read-outs stand apart in the source and are kept apart here.

Key:
hSLO2.2 = target: T1, hSLO2.2 (Homo sapiens, UniProt Q5JUK3); assay: SLO2.2 inhibition in HEK cells; assay type: cell-based
T1 construct: expressed in transfected cells; host or cells: HEK
T1 sequence (Q5JUK3 whole entry): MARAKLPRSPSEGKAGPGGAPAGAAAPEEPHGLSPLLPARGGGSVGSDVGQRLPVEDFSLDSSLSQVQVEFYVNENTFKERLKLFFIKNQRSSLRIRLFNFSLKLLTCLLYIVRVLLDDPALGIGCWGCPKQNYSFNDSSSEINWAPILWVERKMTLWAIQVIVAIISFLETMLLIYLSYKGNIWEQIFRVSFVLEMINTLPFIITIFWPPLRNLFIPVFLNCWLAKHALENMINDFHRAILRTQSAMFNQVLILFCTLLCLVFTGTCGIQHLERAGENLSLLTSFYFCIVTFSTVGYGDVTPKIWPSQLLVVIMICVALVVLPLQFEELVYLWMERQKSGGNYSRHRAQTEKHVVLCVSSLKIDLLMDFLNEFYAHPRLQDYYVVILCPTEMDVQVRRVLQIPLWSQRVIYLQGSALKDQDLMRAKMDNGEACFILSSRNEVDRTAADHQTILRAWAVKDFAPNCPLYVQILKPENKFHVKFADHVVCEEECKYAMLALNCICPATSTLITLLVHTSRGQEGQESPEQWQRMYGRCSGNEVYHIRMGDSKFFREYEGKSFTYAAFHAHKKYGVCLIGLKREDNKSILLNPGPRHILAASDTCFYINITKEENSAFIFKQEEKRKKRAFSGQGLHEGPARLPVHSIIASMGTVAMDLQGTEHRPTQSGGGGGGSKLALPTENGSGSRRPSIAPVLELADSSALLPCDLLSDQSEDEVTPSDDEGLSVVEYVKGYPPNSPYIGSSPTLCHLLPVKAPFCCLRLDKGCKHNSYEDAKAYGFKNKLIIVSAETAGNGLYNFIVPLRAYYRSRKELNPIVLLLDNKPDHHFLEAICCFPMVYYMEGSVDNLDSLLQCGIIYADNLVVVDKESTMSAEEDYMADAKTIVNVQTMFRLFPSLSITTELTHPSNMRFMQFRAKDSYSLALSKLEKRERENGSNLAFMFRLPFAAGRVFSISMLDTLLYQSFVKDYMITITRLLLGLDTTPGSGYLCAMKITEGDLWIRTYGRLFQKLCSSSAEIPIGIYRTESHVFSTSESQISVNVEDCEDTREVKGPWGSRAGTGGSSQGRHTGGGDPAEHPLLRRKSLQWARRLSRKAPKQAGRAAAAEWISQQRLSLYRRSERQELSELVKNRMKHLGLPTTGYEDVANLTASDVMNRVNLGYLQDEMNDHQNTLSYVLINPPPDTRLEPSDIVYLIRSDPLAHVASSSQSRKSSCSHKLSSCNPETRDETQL

[1] = Drug concentrations in compartments of the murine FRT after IP dosing; assay type: in vivo, mouse; settings: 10 mg/kg IP; for concentration at 0.25 hr / concentration at 0.5 hr / concentration at 1 hr / concentration at 3 hr / concentration at 6 hr / concentration at 24 hr: mouse
Protocol: Samples were analyzed via electrospray ionization (ESI) LC-MS/MS on an AB Sciex 4500 (Foster City, CA) triple-quadrupole instrument that was coupled with an Agilent 1290 Infinity Binary Pump and multisampler (Santa Clara, CA) and concentrations (ng/mL or ng/g) were determined using a matrix-matched 10-point standard curve and then converted to nM concentrations. Quantitation of compounds was performed via AB Sciex Multiquant software using the raw analyte:IS peak area ratios. The typical detection range was 0.5 ng/mL to ≥5000 ng/mL utilizing a quadratic equation regression with 1/x² weighting. Correction for dilution of all tissue samples was performed postquantitation. The corrections for dilution in the extraction buffer employed correction factors specific to each tissue weight.
In subsequent experiments, mice were dosed by injection into the peritoneum (ip) as a single 10 mg/kg dose, the reproductive organs were dissected, and the ovaries, the oviducts, and the uterus were pooled from 2 animals and frozen. Tissues were subjected to mechanical homogenization (Mini-BeadBeater, BioSpec Products, Inc., Bartlesville, OK) in the presence of stainless-steel beads (1.0 mm) and extraction buffer (isopropanol:water, 7:3, v/v; 1 mL per sample for whole reproductive organs and uterus and 250 μL for ovaries and oviducts). Homogenized tissue samples were then centrifuged (4000 rcf, 5 min, ambient temperature), and 5 μL of the supernatant was used for quantification of the analyte. The plasma standard curve and QCs were used for compound quantitation in reproductive tissues.

[2] = ovary, female mice, read-out: Ovary concentration
[3] = oviduct, female mice, read-out: Oviduct concentration
[4] = plasma, female mice, read-out: Plasma concentration
[5] = uterus, female mice, read-out: Uterus concentration

Cc1cc(Cl)cc2sc(OC3CCN(C(=O)CCCS(=O)(=O)c4cccc(Br)c4)CC3F)nc12 (centres unmarked) [VU6045330]
HEK hSLO2.2 % inhib. 10 μM (hSLO2.2): No inhibition

O=C(c1ccc(OCc2ccc(OC(F)(F)F)cc2)cc1)N1CCN(c2ccc(C(F)(F)F)cn2)CC1 [VU6032735]
oviduct total drug concentration relative to mSLO3 IC50 ([1]; 24 h, versus IC50 in mouse sperm and in mSLO3-γ2 HEK293 cells): 4.4- to 5.5 fold | oviduct concentration relative to ovary ([1]; female mice): 10 fold | oviduct concentration relative to uterus ([1]; female mice): 5 fold | total concentrations in the different compartments of the reproductive tract ([1]; female mice, for 24 h after dosing): above 1 μM | concentration at 0.25 hr [1, 2]: 7.52 µM | concentration at 0.5 hr [1, 2]: 7.69 µM | concentration at 1 hr [1, 2]: 7.45 µM | concentration at 3 hr [1, 2]: 2.63 µM | concentration at 6 hr [1, 2]: 3.54 µM | concentration at 24 hr [1, 2]: 1.97 µM | concentration at 0.25 hr [1, 3]: 73 µM | concentration at 0.5 hr [1, 3]: 94.8 µM | concentration at 1 hr [1, 3]: 95.2 µM | concentration at 3 hr [1, 3]: 93.6 µM | concentration at 6 hr [1, 3]: 35.3 µM | concentration at 24 hr [1, 3]: 4.02 µM | concentration at 0.25 hr [1, 4]: 1.15 µM | concentration at 0.5 hr [1, 4]: 0.45 µM | concentration at 1 hr [1, 4]: 0.62 µM | concentration at 3 hr [1, 4]: 0.98 µM | concentration at 6 hr [1, 4]: 2.14 µM | concentration at 24 hr [1, 4]: 0.61 µM | concentration at 0.25 hr [1, 5]: 12.4 µM | concentration at 0.5 hr [1, 5]: 11.3 µM | concentration at 1 hr [1, 5]: 21.8 µM | concentration at 3 hr [1, 5]: 4.35 µM | concentration at 6 hr [1, 5]: 6.66 µM | concentration at 24 hr [1, 5]: 3.11 µM
